Laboratory results as given in US20240190860A1, “8-CYCLO-SUBSTITUTED QUINAZOLINE DERIVATIVES AS LPA RECEPTOR 2 INHIBITORS” (CHIESI FARMACEUTICI S.p.A., priority 2021, published 2024).
Where two headings read alike, the source gives them in different places.

Molecular target: T1, human recombinant LPA2 expressed in CHO cells (Homo sapiens, UniProt Q9HBW0)
T1 construct: expressed in transfected cells; host or cells: CHO cells (CHO-hLPA2 cell line)
Experiment: FLIPR calcium mobilization assay, LPA2 antagonism in CHO-hLPA2 cells
Assay type: cell-based
Procedure, shortened: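 Antagonist potency from four-parameter logistic fit (pIC50) of % inhibition of peak Ca2+ signal evoked by an EC80 LPA challenge. Before challenge, hLPA2-CHO cells were dye-loaded (5 μM Cal-520 AM, 2.5 mM probenecid, pH 7.4 HEPES buffer, 30 min, 37° C) and exposed 30 min to compound at 11 concentrations, 0.5% DMSO final.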

[1] = CHO-hLPA2 cells, inhibition of LPA EC80 Ca2+ response, 30 min pre-incubation, read-out: LPA2 IC50

T1 sequence (Q9HBW0 whole entry): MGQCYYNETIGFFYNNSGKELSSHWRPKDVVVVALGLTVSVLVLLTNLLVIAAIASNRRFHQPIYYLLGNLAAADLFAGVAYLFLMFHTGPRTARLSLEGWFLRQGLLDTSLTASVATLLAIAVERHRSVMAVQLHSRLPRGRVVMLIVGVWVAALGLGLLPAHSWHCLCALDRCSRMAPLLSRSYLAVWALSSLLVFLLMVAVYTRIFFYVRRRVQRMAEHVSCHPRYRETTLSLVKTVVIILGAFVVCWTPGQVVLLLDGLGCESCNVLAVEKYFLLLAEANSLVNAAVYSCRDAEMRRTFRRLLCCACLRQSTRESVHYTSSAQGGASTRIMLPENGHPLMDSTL

| IC50 [1] [nM] | IC50 (comparative compound, same in vitro assay, stated inactive on receptor LPA2, read-out: IC50 on LPA2 receptor) [nM] | SMILES |
| --- | --- | --- |
| < 10 | – | COC(=O)Nc1nc(C)c(S(=O)(=O)N2CCN(C[C@H](C)Nc3ncnc4c(-c5cnn(C)c5C)cccc34)CC2)s1 [Example 64, methyl N-[5-({4-[(2S)-2-{[8-(1,5-dimethyl-1H-pyrazol-4-yl)quinazolin-4-yl]amino}propyl]piperazin-1-yl}sulfonyl)-4-methyl-1,3-thiazol-2-yl]carbamate] |
| < 10 | – | C[C@@H](CN1CCN(S(=O)(=O)c2ccc3[nH]c(=O)sc3c2)CC1)Nc1ncnc2c(-c3cn(C)nc3C(F)(F)F)cccc12 [Example 79, 6-({4-[(2S)-2-({8-[1-methyl-3-(trifluoromethyl)-1H-pyrazol-4-yl]quinazolin-4-yl}amino)propyl]piperazin-1-yl}sulfonyl)-2,3-dihydro-1,3-benzothiazol-2-one] |
| < 10 | – | C[C@@H](CN1CCN(S(=O)(=O)c2ccc3[nH]c(=O)[nH]c(=O)c3c2)CC1)Nc1ncnc2c(-c3cccc(CN(C)C)c3)cccc12 [Example 77, 6-({4-[(2S)-2-[(8-{3-[(dimethylamino)methyl]phenyl}quinazolin-4-yl)amino]propyl]piperazin-1-yl}sulfonyl)-1,2,3,4-tetrahydroquinazoline-2,4-dione] |
| < 10 | – | C[C@@H](CN1CCN(S(=O)(=O)c2ccc3c(c2)CC(=O)N3)CC1)Nc1ncnc2c(-c3cccc(CN(C)C)c3)cccc12 [Example 76, 5-({4-[(2S)-2-[(8-{3-[(dimethylamino)methyl]phenyl}quinazolin-4-yl)amino]propyl]piperazin-1-yl}sulfonyl)-2,3-dihydro-1H-indol-2-one] |
| 10 to 100 | – | COC(=O)Nc1nc(C)c(S(=O)(=O)N2CCN(C[C@H](C)Nc3ncnc4c(-c5cnc(C)cn5)cccc34)CC2)s1 [Example 2, methyl N-[4-methyl-5-({4-[(2S)-2-{[8-(5-methylpyrazin-2-yl)quinazolin-4-yl]amino}propyl]piperazin-1-yl}sulfonyl)-1,3-thiazol-2-yl]carbamate] |
| 10 to 100 | – | Cc1ccc(-c2cccc3c(N[C@@H](C)CN4CCN(S(=O)(=O)c5ccc6c(c5)sc(=O)n6C)CC4)ncnc23)cn1 [Example 100, 3-methyl-6-({4-[(2S)-2-{[8-(6-methylpyridin-3-yl)quinazolin-4-yl]amino}propyl]piperazin-1-yl}sulfonyl)-2,3-dihydro-1,3-benzothiazol-2-one] |
| < 10 | – | COC(=O)Nc1nc(C)c(S(=O)(=O)N2CCN(C[C@H](C)Nc3ncnc4c(-c5cncc(CN6CCCC6)c5)cccc34)CC2)s1 [Example 25, methyl N-[4-methyl-5-({4-[(2S)-2-[(8-{5-[(pyrrolidin-1-yl)methyl]pyridin-3-yl}quinazolin-4-yl)amino]propyl]piperazin-1-yl}sulfonyl)-1,3-thiazol-2-yl]carbamate] |
| – | > 3000 | COC(=O)Nc1nc(C)c(S(=O)(=O)N2CCN(C[C@H](C)Nc3ncnc4ncccc34)CC2)s1 [comparative Example A, Methyl (S)-(4-methyl-5-((4-(2-(pyrido[2,3-d]pyrimidin-4 ylamino)propyl)piperazin-1-yl)sulfonyl)thiazol-2-yl)carbamate, reference compound] |
| 10 to 100 | – | COC(=O)Nc1nc(C)c(S(=O)(=O)N2CCN(C[C@H](C)Nc3ncnc4c(C5CC5)cccc34)CC2)s1 [Example 41, methyl N-[5-({4-[(2S)-2-[(8-cyclopropylquinazolin-4-yl)amino]propyl]piperazin-1-yl}sulfonyl)-4-methyl-1,3-thiazol-2-yl]carbamate] |
| < 10 | – | COC(=O)Nc1nc(C)c(S(=O)(=O)N2CCN(C[C@H](C)Nc3ncnc4c(-c5cnn(CCN(C)C)c5)cccc34)CC2)s1 [Example 58, methyl N-[5-({4-[(2S)-2-[(8-{1-[2-(dimethylamino)ethyl]-1H-pyrazol-4-yl}quinazolin-4-yl)amino]propyl]piperazin-1-yl}sulfonyl)-4-methyl-1,3-thiazol-2-yl]carbamate] |
| < 10 | – | CC(=O)Nc1ncc(S(=O)(=O)N2CCN(C[C@H](C)Nc3ncnc4c(-c5cccnc5)cccc34)CC2)s1 [Example 37, N-[5-({4-[(2S)-2-{[8-(pyridin-3-yl)quinazolin-4-yl]amino}propyl]piperazin-1-yl}sulfonyl)-1,3-thiazol-2-yl]acetamide] |
| < 10 | – | COC(=O)Nc1ncc(S(=O)(=O)N2CCN(C[C@H](C)Nc3ncnc4c(-c5cccc(CN(C)C)c5)cccc34)CC2)s1 [Example 75, methyl N-[5-({4-[(2S)-2-[(8-{3-[(dimethylamino)methyl]phenyl}quinazolin-4-yl)amino]propyl]piperazin-1-yl}sulfonyl)-1,3-thiazol-2-yl]carbamate] |
